Results as given in ChEMBL document CHEMBL1201862, “PubChem BioAssay data set” (2004).
Calls of active or inactive are those of the source.

Legend:
[1] = biological target: T1, High affinity choline transporter 1 (Homo sapiens, UniProt Q9GZV3); assay: CHT activators, dose response, cell-based, 10-point CRC, membrane potential dye (AID 602376); format: functional
T1 sequence (Q9GZV3 whole entry): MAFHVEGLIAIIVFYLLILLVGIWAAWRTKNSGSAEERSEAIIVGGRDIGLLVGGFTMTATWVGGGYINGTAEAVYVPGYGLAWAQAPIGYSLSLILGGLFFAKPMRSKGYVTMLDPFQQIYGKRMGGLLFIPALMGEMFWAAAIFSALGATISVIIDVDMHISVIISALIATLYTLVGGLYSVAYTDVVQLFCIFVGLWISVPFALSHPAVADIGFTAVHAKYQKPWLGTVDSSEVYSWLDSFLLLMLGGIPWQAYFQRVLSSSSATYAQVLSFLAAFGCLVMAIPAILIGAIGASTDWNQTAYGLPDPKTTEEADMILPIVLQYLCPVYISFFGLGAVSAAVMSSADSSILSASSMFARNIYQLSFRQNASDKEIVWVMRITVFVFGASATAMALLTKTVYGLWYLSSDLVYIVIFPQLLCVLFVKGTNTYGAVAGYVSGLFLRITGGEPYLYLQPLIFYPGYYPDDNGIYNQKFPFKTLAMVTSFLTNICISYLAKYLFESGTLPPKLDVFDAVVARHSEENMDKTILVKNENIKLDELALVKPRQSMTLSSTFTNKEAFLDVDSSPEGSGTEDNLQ

[2] = cytotoxicity in HEK-293T cells, dose response, cytotoxicity control for BCR NF-kB inhibitor project, luminescence, B-cell screen hits (AID 489021); format: functional, cell-based;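 note: HEK-293T cells carrying an NF-kB luciferase reporter; cells exposed to compound for about 14 hours before viability readout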
[3] = Luminescence Cell-Based Dose Confirmation HTS to Identify Inhibitors of Platelet Dense Granule Release. [Related pubchem assays: 1663 (Primary HTS), 1678 (Summary of Project)]; format: functional
[4] = biological target: Luciferin 4-monooxygenase (Photinus pyralis, UniProt P08659); assay: firefly luciferase enzyme inhibitors, dose response, biochemical, luminescence (AID 1891)
Sequence of Luciferin 4-monooxygenase (P08659 whole entry): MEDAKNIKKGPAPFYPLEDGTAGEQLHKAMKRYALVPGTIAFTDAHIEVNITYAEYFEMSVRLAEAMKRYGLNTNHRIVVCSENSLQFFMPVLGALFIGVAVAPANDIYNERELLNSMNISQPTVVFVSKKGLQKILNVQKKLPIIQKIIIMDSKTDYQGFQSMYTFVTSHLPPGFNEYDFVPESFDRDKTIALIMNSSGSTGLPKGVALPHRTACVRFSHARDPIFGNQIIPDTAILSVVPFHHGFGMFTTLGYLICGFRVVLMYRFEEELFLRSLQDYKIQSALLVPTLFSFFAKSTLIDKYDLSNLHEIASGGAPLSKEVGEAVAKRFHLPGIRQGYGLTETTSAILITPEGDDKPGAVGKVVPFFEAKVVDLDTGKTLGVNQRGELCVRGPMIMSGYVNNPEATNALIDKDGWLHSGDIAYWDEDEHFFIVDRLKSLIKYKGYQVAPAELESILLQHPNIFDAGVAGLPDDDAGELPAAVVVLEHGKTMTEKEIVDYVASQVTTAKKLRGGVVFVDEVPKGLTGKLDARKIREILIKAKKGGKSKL

Caspase-3 = biological target: T2, Caspase-3 (Homo sapiens, UniProt P42574); assay: SAR Analysis of small molecule inhibitors of Sentrin-specific proteases (SENPs) using a Caspase-3 Selectivity assay. [Related pubchem assays (depositor defined):AID2540, AID2599, AID434973, AID489001]; format: functional
T2 sequence (P42574 whole entry): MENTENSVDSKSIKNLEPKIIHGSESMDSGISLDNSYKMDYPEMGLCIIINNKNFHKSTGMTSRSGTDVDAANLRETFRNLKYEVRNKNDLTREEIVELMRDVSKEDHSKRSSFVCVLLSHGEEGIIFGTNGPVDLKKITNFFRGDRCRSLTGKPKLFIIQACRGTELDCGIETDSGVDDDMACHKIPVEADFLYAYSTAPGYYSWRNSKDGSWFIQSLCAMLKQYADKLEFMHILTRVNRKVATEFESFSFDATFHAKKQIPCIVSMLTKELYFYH

[5] = biological target: T3, Sentrin-specific protease 6 (Homo sapiens, UniProt Q9GZR1); assay: SAR Analysis of small molecule inhibitors of Sentrin-specific protease 6 (SENP6) using a Luminescent assay. [Related pubchem assays (depositor defined):AID2582, AID2599]; format: functional
T3 sequence (Q9GZR1 whole entry): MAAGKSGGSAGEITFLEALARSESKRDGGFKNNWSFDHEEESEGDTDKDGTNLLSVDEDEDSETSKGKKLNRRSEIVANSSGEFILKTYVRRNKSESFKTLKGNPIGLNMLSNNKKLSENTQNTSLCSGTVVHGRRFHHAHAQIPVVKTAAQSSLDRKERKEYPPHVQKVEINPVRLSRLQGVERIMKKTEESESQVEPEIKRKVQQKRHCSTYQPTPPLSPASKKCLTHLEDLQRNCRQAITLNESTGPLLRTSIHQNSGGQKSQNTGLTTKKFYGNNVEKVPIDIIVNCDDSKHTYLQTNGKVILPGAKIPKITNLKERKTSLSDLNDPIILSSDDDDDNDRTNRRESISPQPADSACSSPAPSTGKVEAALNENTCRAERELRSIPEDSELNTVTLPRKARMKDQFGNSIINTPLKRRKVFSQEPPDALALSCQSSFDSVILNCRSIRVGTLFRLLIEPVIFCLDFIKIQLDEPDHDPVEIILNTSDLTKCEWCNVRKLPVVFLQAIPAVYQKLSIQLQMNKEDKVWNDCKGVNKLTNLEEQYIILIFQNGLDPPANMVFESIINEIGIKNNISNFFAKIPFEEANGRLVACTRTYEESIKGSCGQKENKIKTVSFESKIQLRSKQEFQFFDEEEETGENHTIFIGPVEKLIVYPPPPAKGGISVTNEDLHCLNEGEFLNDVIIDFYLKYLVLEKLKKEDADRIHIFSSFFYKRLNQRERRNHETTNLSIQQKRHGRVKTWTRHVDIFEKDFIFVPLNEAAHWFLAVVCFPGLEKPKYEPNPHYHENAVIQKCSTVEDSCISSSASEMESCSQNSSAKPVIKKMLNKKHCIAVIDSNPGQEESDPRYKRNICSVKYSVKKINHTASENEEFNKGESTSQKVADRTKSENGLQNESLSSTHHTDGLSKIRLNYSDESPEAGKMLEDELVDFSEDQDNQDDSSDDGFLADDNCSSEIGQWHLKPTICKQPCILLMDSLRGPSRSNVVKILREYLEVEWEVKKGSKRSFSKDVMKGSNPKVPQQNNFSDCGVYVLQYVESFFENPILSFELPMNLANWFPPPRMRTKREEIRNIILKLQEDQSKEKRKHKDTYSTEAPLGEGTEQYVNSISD

[6] = biological target: T4, Sentrin-specific protease 8 (Homo sapiens, UniProt Q96LD8); assay: SENP8 protease inhibitors, SAR follow-up, biochemical, luminescence (AID 504501); format: functional
T4 sequence (Q96LD8 whole entry): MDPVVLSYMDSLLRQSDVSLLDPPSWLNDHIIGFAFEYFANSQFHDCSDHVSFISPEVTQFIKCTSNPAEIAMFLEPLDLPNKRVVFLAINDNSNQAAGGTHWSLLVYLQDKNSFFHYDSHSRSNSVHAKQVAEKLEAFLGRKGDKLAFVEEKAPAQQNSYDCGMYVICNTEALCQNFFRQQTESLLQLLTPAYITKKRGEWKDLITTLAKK

[7] = biological target: T5, Sentrin-specific protease 7 (Homo sapiens, UniProt Q9BQF6); assay: SENP7 protease inhibitors, SAR follow-up, biochemical, luminescence (AID 504497); format: functional
T5 sequence (Q9BQF6 whole entry): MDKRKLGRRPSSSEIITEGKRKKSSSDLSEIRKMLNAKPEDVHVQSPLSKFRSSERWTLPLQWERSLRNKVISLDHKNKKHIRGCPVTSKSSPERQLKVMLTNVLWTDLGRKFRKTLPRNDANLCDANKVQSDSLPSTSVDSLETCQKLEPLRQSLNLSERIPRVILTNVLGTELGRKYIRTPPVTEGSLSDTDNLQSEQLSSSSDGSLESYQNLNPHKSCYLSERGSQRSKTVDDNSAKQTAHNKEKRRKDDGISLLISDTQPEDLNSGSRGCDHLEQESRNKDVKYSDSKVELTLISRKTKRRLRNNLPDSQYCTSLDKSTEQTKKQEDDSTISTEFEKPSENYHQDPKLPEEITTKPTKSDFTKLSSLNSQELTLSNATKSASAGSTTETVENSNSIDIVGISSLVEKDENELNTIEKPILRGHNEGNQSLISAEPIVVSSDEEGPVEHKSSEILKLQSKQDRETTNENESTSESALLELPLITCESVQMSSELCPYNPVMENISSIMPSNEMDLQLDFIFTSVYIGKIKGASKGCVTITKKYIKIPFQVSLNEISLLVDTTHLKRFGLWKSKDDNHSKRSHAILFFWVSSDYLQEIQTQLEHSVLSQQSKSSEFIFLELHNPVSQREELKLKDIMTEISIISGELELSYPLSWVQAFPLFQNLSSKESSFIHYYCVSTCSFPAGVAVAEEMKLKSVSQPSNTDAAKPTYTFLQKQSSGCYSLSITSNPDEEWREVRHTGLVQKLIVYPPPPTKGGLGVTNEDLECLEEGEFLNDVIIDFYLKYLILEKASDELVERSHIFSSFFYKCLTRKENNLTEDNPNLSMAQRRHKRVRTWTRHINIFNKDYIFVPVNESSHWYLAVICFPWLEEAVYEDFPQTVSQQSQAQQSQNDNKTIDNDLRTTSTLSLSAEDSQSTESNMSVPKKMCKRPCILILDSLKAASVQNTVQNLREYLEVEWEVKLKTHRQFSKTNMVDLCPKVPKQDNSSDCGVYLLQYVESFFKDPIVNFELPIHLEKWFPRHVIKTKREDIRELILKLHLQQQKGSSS

[8] = biological target: Cyclin-dependent kinase 8 (Homo sapiens, UniProt P49336); assay: Navigating the Kinome. Panel member name: CDK8; format: functional
Sequence of Cyclin-dependent kinase 8 (P49336 whole entry): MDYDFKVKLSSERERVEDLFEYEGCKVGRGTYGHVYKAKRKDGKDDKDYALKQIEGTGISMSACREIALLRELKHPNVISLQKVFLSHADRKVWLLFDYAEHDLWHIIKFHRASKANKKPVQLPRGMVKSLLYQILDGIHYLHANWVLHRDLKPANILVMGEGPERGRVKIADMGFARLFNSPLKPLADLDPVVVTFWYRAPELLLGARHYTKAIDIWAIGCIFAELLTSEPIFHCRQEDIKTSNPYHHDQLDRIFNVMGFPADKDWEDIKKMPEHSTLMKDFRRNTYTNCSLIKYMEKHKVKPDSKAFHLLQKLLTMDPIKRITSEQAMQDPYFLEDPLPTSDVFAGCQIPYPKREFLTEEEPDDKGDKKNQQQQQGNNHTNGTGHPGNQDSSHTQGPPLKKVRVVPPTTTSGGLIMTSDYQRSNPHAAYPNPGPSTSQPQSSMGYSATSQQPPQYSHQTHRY

[9] = biological target: T6, Serine/threonine-protein kinase Nek2 (Homo sapiens, UniProt P51955); format: functional
T6 sequence (P51955 whole entry): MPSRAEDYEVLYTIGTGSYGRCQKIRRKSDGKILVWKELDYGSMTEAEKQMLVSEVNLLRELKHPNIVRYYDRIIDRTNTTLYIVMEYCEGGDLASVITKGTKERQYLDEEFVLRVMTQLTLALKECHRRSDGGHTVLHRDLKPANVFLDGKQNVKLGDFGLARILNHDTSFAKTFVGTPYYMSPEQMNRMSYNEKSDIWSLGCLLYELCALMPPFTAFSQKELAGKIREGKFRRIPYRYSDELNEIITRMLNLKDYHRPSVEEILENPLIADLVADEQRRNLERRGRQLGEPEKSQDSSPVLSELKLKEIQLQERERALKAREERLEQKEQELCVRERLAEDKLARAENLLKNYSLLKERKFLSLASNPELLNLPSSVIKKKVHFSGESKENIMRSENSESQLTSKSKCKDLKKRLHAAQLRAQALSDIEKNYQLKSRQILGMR

LIM domain kinase 1 = LIM domain kinase 1 (Homo sapiens, UniProt P53667); assay: Navigating the Kinome. Panel member name: LIMK1; format: functional
Sequence of LIM domain kinase 1 (P53667 whole entry, the tested form may be a part): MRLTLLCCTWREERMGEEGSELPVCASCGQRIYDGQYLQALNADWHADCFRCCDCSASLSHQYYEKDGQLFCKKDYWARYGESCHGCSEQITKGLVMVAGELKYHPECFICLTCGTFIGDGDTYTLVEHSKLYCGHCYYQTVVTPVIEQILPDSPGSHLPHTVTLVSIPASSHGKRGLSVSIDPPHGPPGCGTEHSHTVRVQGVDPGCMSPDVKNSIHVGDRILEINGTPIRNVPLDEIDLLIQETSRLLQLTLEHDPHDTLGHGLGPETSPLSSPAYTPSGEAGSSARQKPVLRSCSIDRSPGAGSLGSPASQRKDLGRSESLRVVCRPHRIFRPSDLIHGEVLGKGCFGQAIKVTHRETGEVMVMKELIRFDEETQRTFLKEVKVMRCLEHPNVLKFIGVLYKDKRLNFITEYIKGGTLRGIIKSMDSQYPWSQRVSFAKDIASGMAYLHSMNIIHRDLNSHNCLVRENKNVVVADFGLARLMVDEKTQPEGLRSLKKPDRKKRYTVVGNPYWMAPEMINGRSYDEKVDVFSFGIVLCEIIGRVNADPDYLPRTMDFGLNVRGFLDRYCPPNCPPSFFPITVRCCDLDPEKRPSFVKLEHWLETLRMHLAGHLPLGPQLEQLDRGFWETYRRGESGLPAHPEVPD

[10] = biological target: Serine/threonine-protein kinase Chk1 (Homo sapiens, UniProt O14757); format: functional;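 note: measured as one member of a kinome-wide kinase profiling panel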
Sequence of Serine/threonine-protein kinase Chk1 (O14757 whole entry): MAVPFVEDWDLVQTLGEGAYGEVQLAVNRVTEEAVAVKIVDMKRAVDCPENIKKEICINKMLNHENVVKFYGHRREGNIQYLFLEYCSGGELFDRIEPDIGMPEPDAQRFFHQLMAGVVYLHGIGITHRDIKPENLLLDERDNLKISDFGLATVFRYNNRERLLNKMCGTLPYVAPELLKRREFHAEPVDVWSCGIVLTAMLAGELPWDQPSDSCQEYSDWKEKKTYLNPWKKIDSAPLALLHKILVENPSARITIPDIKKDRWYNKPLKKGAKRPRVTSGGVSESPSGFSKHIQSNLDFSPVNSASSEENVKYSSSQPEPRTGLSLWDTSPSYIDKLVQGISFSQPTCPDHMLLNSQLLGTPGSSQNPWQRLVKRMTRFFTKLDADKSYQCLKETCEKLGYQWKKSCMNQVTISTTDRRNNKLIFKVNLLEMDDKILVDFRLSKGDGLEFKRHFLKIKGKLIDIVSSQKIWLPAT

[11] = biological target: Melanin-concentrating hormone receptor 1 (Homo sapiens, UniProt Q99705); assay: Late-stage fluorescence-based counterscreen for antagonists of the G-protein coupled receptor 7 (GPR7): cell-based dose response assay to identify antagonists of the melanin-concentrating hormone receptor 1 (MCHR1) Set 5.; format: functional
Sequence of Melanin-concentrating hormone receptor 1 (Q99705 whole entry): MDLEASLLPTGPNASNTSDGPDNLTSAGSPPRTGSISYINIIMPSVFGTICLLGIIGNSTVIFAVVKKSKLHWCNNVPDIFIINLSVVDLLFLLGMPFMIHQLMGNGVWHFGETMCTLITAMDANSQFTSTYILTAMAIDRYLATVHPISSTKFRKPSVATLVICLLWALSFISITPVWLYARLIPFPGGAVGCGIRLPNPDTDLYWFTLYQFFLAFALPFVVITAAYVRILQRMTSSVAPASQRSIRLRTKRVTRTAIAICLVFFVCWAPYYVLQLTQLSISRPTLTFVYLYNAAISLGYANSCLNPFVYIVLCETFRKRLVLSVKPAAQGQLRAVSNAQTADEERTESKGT

SMILES	EC50 [1]	IC50 (Caspase-3)	IC50 [5]	IC50 [6]	IC50 [7]	also measured
COc1cc(C2C(C#N)=C(N)Oc3cc(N)ccc32)cc(OC)c1OC (stereo not drawn)	13.5 µM (active)	–	–	–	–	IC50 [2]: > 80 µM (inactive)
CC(Oc1ccccc1)C(=O)N(CCC1=CCCCC1)c1c(N)n(Cc2ccccc2)c(=O)[nH]c1=O (stereo not drawn)	15 µM (active)	–	–	–	–	EC50 [3]: > 112 µM (not active); EC50 [4]: > 112 µM (not active)
Cc1c(C(=O)Nc2nc3ccccc3s2)oc2ccccc12	–	> 99 µM (inactive)	> 99 µM (inactive)	> 99 µM (inactive)	> 99 µM (inactive)	–
CCN(CC)S(=O)(=O)c1ccc(C(=O)Nc2nc3c(C)ccc(Cl)c3s2)cc1	–	> 99 µM (inactive)	> 99 µM (inactive)	> 99 µM (inactive)	> 99 µM (inactive)	–
O=S(=O)(Nc1ccc2ccccc2c1O)c1ccc(F)cc1	–	–	–	–	–	Ki [8]: 2.51 µM (active); Ki [9]: 3.16 µM (active); Ki (LIM domain kinase 1): 2.51 µM (active); Ki [10]: 3.16 µM (active)
CCOc1cccc(Oc2c(Cl)cnn(Cc3cccc4ccccc34)c2=O)c1	–	–	–	–	–	IC50 [11]: 18.8 µM (inactive)
